Where “and” joins values, the source holds several entries; their conditions need not be identical. Equal values may be shown once. Read-outs that look alike come from different tables or passages of the source.
How the values were obtained:
A549 cells = experiment: Transwell migration and Matrigel invasion assays; type: cell-based, human; details: dose-dependent, 12 h treatment
Protocol: The Transwell insert in a 24-well plate (8 μm, Corning, NY, USA) was taken out, and a 600-μl medium containing 10% FBS was added to the bottom chamber. The A549 cells were resuspended with 10% FBS culture medium, and the diluted cell suspension (3 × 10^5/300 μl) was cultured in the top chamber and then incubated with or without Matrigel (BD BioCoat). After 12 h, the medium in the top chamber was changed to RPMI-1640 without FBS, and BD or BH with different concentrations was added ([31]). After an additional 12 h, the cells that migrated or invaded the bottom side of the polycarbonate film were fixed with methanol for 30 min and then stained for 15 min with 0.1% crystal violet (Solarbio), after which their number was assessed under a microscope (×4, Nikon).

[1] = Preliminary pharmacokinetics in SD rats; type: in vivo; details: for AUC(0-inf) / AUC(0-t) / clearance / half-life / Cmax / Vd / concentration at 5 min / concentration at 10 min / concentration at 0.25 h / concentration at 0.5 h / concentration at 0.75 h / concentration at 1 h / concentration at 2 h / concentration at 4 h / concentration at 6 h / concentration at 8 h / concentration at 12 h / concentration at 24 h / MRT inf / k el: male, SD, rat, plasma; for Cmax: read-out: Maximum concentration (C max)
Protocol: We administered BH by gavage and intravenous administration to SD rats (male, 200–220 g, n = 6) after they had fasted for 12 h. For oral gavage, the BH was dissolved in DMSO/0.5% CMC-Na (5/95, v/v/), and for intravenous administration, it was dissolved in DMSO/0.9% NaCl (5/95, v/v/), and then the blood samples were collected at intervals to determine the pharmacokinetic (PK) profiles of SD rats.

CC1=CC(=O)[C@@H](O)[C@]2(C)[C@H]3[C@@H](O)[C@H](O)[C@@]4(CO)OC[C@@]35[C@@H](C[C@@H]12)OC(=O)[C@H](O)[C@]54O [BH, Bruceine H]
Transwell migration and invasion of A549 (A549 cells): significant anti-invasive and antimigratory actions
Concentration of BH in rat plasma, individual rats No1-No3 ([1]; i.v. 2 mg/kg, 5 min, 2 mg/kg): 484.6 ng/mL and 469.6 ng/mL
Concentration of BH in rat plasma, individual rats No1-No3 ([1]; i.v. 2 mg/kg, 10 min, 2 mg/kg): 455.4 ng/mL and 450.6 ng/mL
Concentration of BH in rat plasma, individual rats No1-No3 ([1]; i.v. 2 mg/kg, 0.25 h, 2 mg/kg): 398.5 ng/mL and 384.2 ng/mL
Concentration of BH in rat plasma, individual rats No1-No3 ([1]; i.v. 2 mg/kg, 0.5 h, 2 mg/kg): 245.3 ng/mL and 234.1 ng/mL
Concentration of BH in rat plasma, individual rats No1-No3 ([1]; i.v. 2 mg/kg, 0.75 h, 2 mg/kg): 177.7 ng/mL and 180.4 ng/mL
Concentration of BH in rat plasma, individual rats No1-No3 ([1]; i.v. 2 mg/kg, 1 h, 2 mg/kg): 135.4 ng/mL and 119.6 ng/mL
Concentration of BH in rat plasma, individual rats No1-No3 ([1]; i.v. 2 mg/kg, 2 h, 2 mg/kg): 95.3 ng/mL and 98.5 ng/mL
Concentration of BH in rat plasma, individual rats No1-No3 ([1]; i.v. 2 mg/kg, 4 h, 2 mg/kg): 55.4 ng/mL and 51.2 ng/mL
Concentration of BH in rat plasma, individual rats No1-No3 ([1]; i.v. 2 mg/kg, 6 h, 2 mg/kg): 40.4 ng/mL and 42.1 ng/mL
Concentration of BH in rat plasma, individual rats No1-No3 ([1]; i.v. 2 mg/kg, 8 h, 2 mg/kg): 18.8 ng/mL and 25.4 ng/mL
Concentration of BH in rat plasma, individual rats No1-No3 ([1]; i.v. 2 mg/kg, 12 h, 2 mg/kg): 12.3 ng/mL and 21.3 ng/mL
Concentration of BH in rat plasma, individual rats No1-No3 ([1]; i.v. 2 mg/kg, 24 h, 2 mg/kg): 6.3 ng/mL and 10.2 ng/mL
AUC(0-inf) ([1]; iv, 2 mg/kg, SD rats, 2 mg/kg iv, read-out: AUC0–inf): 1050 ng·h/mL
AUC(0-t) ([1]; iv, 2 mg/kg, SD rats, 2 mg/kg iv, read-out: AUC0–last): 944 ng·h/mL
clearance ([1]; iv, 2 mg/kg, SD rats, 2 mg/kg iv, read-out: Clearance (CL) (converted)): 31.9 mL/min/kg
half-life ([1]; iv, 2 mg/kg, SD rats, 2 mg/kg iv, read-out: Half-life (T 1/2) (converted)): 9.69 h
Cmax ([1]; iv, 2 mg/kg, SD rats, 2 mg/kg iv): 477 ng/mL
Vd ([1]; iv, 2 mg/kg, SD rats, 2 mg/kg iv, read-out: Volume of distribution (V ss)): 26.5 L/kg
concentration at 5 min ([1]; iv, 2 mg/kg, i.v. 2 mg/kg, 5 min, read-out: Concentration of BH in rat plasma, Mean): 477 ng/mL
concentration at 5 min ([1]; iv, 2 mg/kg, i.v. 2 mg/kg, 5 min, read-out: Concentration of BH in rat plasma, individual rats No1-No3): 478 ng/mL
concentration at 10 min ([1]; iv, 2 mg/kg, i.v. 2 mg/kg, 10 min, read-out: Concentration of BH in rat plasma, Mean): 442 ng/mL
concentration at 10 min ([1]; iv, 2 mg/kg, i.v. 2 mg/kg, 10 min, read-out: Concentration of BH in rat plasma, individual rats No1-No3): 420 ng/mL
concentration at 0.25 h ([1]; iv, 2 mg/kg, i.v. 2 mg/kg, 0.25 h, read-out: Concentration of BH in rat plasma, Mean): 384 ng/mL
concentration at 0.25 h ([1]; iv, 2 mg/kg, i.v. 2 mg/kg, 0.25 h, read-out: Concentration of BH in rat plasma, individual rats No1-No3): 371 ng/mL
concentration at 0.5 h ([1]; iv, 2 mg/kg, i.v. 2 mg/kg, 0.5 h, read-out: Concentration of BH in rat plasma, Mean): 236 ng/mL
concentration at 0.5 h ([1]; iv, 2 mg/kg, i.v. 2 mg/kg, 0.5 h, read-out: Concentration of BH in rat plasma, individual rats No1-No3): 228 ng/mL
concentration at 0.75 h ([1]; iv, 2 mg/kg, i.v. 2 mg/kg, 0.75 h, read-out: Concentration of BH in rat plasma, Mean): 177 ng/mL
concentration at 0.75 h ([1]; iv, 2 mg/kg, i.v. 2 mg/kg, 0.75 h, read-out: Concentration of BH in rat plasma, individual rats No1-No3): 172 ng/mL
concentration at 1 h ([1]; iv, 2 mg/kg, i.v. 2 mg/kg, 1 h, read-out: Concentration of BH in rat plasma, Mean): 127 ng/mL
concentration at 1 h ([1]; iv, 2 mg/kg, i.v. 2 mg/kg, 1 h, read-out: Concentration of BH in rat plasma, individual rats No1-No3): 125 ng/mL
concentration at 2 h ([1]; iv, 2 mg/kg, i.v. 2 mg/kg, 2 h, read-out: Concentration of BH in rat plasma, Mean): 99.1 ng/mL
concentration at 2 h ([1]; iv, 2 mg/kg, i.v. 2 mg/kg, 2 h, read-out: Concentration of BH in rat plasma, individual rats No1-No3): 104 ng/mL
concentration at 4 h ([1]; iv, 2 mg/kg, i.v. 2 mg/kg, 4 h, read-out: Concentration of BH in rat plasma, Mean): 54.9 ng/mL
concentration at 4 h ([1]; iv, 2 mg/kg, i.v. 2 mg/kg, 4 h, read-out: Concentration of BH in rat plasma, individual rats No1-No3): 58 ng/mL
concentration at 6 h ([1]; iv, 2 mg/kg, i.v. 2 mg/kg, 6 h, read-out: Concentration of BH in rat plasma, Mean): 40 ng/mL
concentration at 6 h ([1]; iv, 2 mg/kg, i.v. 2 mg/kg, 6 h, read-out: Concentration of BH in rat plasma, individual rats No1-No3): 37.6 ng/mL
concentration at 8 h ([1]; iv, 2 mg/kg, i.v. 2 mg/kg, 8 h, read-out: Concentration of BH in rat plasma, Mean): 24.5 ng/mL
concentration at 8 h ([1]; iv, 2 mg/kg, i.v. 2 mg/kg, 8 h, read-out: Concentration of BH in rat plasma, individual rats No1-No3): 29.2 ng/mL
concentration at 12 h ([1]; iv, 2 mg/kg, i.v. 2 mg/kg, 12 h, read-out: Concentration of BH in rat plasma, Mean): 17.9 ng/mL
concentration at 12 h ([1]; iv, 2 mg/kg, i.v. 2 mg/kg, 12 h, read-out: Concentration of BH in rat plasma, individual rats No1-No3): 20 ng/mL
concentration at 24 h ([1]; iv, 2 mg/kg, i.v. 2 mg/kg, 24 h, read-out: Concentration of BH in rat plasma, Mean): 7.37 ng/mL
concentration at 24 h ([1]; iv, 2 mg/kg, i.v. 2 mg/kg, 24 h, read-out: Concentration of BH in rat plasma, individual rats No1-No3): 5.6 ng/mL
AUC(0-t) ([1]; iv, 2 mg/kg, i.v., read-out: AUC (0-t), Mean): 944 ng·h/mL
AUC(0-t) ([1]; iv, 2 mg/kg, i.v., read-out: AUC (0-t), individual rats No1-No3): 965 ng·h/mL
AUC(0-inf) ([1]; iv, 2 mg/kg, i.v., read-out: AUC (0-∞), individual rats No1-No3): 1020 ng·h/mL
clearance ([1]; iv, 2 mg/kg, i.v., read-out: CLz, Mean (converted)): 31.9 mL/min/kg
clearance ([1]; iv, 2 mg/kg, i.v., read-out: CLz, individual rats No1-No3 (converted)): 32.7 mL/min/kg
concentration at 24 h ([1]; iv, 2 mg/kg, i.v., read-out: C_last, Mean): 7.35 ng/mL
concentration at 24 h ([1]; iv, 2 mg/kg, i.v., read-out: C_last, individual rats No1-No3): 5.6 ng/mL
MRT inf ([1]; iv, 2 mg/kg, i.v., read-out: MRT (0-∞), Mean): 8.44 h
MRT inf ([1]; iv, 2 mg/kg, i.v., read-out: MRT (0-∞), individual rats No1-No3): 6.47 h
Vd ([1]; iv, 2 mg/kg, i.v., read-out: Vz, Mean): 26.5 L/kg
Vd ([1]; iv, 2 mg/kg, i.v., read-out: Vz, individual rats No1-No3): 18.6 L/kg
half-life ([1]; iv, 2 mg/kg, i.v., read-out: t1/2z, Mean (converted)): 9.69 h
half-life ([1]; iv, 2 mg/kg, i.v., read-out: t1/2z, individual rats No1-No3 (converted)): 6.55 h
k el ([1]; iv, 2 mg/kg, i.v., read-out: λz, Mean (converted)): 2.11e-05 s⁻¹
k el ([1]; iv, 2 mg/kg, i.v., read-out: λz, individual rats No1-No3 (converted)): 2.94e-05 s⁻¹
AUC(0-inf) ([1]; po, 10 mg/kg, SD rats, 10 mg/kg po, read-out: AUC0–inf): 976 ng·h/mL
AUC(0-t) ([1]; po, 10 mg/kg, SD rats, 10 mg/kg po, read-out: AUC0–last): 961 ng·h/mL
half-life ([1]; po, 10 mg/kg, SD rats, 10 mg/kg po, read-out: Half-life (T 1/2) (converted)): 3.35 h
Cmax ([1]; po, 10 mg/kg, SD rats, 10 mg/kg po): 147 ng/mL
concentration at 0.25 h ([1]; po, 10 mg/kg, p.o. 10 mg/kg, 0.25 h, read-out: Concentration of BH in rat plasma, Mean): 11.8 ng/mL
concentration at 0.25 h ([1]; po, 10 mg/kg, p.o. 10 mg/kg, 0.25 h, read-out: Concentration of BH in rat plasma, individual rats No1-No3): 13.6 ng/mL
concentration at 0.5 h ([1]; po, 10 mg/kg, p.o. 10 mg/kg, 0.5 h, read-out: Concentration of BH in rat plasma, Mean): 58.1 ng/mL
concentration at 0.5 h ([1]; po, 10 mg/kg, p.o. 10 mg/kg, 0.5 h, read-out: Concentration of BH in rat plasma, individual rats No1-No3): 68.4 ng/mL
concentration at 0.75 h ([1]; po, 10 mg/kg, p.o. 10 mg/kg, 0.75 h, read-out: Concentration of BH in rat plasma, Mean): 104 ng/mL
concentration at 0.75 h ([1]; po, 10 mg/kg, p.o. 10 mg/kg, 0.75 h, read-out: Concentration of BH in rat plasma, individual rats No1-No3): 111 ng/mL
concentration at 1 h ([1]; po, 10 mg/kg, p.o. 10 mg/kg, 1 h, read-out: Concentration of BH in rat plasma, Mean): 147 ng/mL
concentration at 1 h ([1]; po, 10 mg/kg, p.o. 10 mg/kg, 1 h, read-out: Concentration of BH in rat plasma, individual rats No1-No3): 154 ng/mL
concentration at 2 h ([1]; po, 10 mg/kg, p.o. 10 mg/kg, 2 h, read-out: Concentration of BH in rat plasma, Mean): 123 ng/mL
concentration at 2 h ([1]; po, 10 mg/kg, p.o. 10 mg/kg, 2 h, read-out: Concentration of BH in rat plasma, individual rats No1-No3): 130 ng/mL
concentration at 4 h ([1]; po, 10 mg/kg, p.o. 10 mg/kg, 4 h, read-out: Concentration of BH in rat plasma, Mean): 101 ng/mL
concentration at 4 h ([1]; po, 10 mg/kg, p.o. 10 mg/kg, 4 h, read-out: Concentration of BH in rat plasma, individual rats No1-No3): 115 ng/mL
